Target: T1, Human NPFF1 (Homo sapiens, UniProt Q9GZQ6)
T1 construct: linearized plasmids or PCR products containing the complete coding region of the genes; expressed in transfected cells; host or cells: Xenopus laevis oocytes (receptor cRNA injected)
Assay: Cl- current recording in Xenopus oocytes expressing GPCR and chimeric G protein
Assay type: cell-based
Details: oocytes injected with 50 nl of 10 mM EGTA
Description: Oocytes were harvested from Xenopus laevis and injected with mRNA transcripts as previously described (Quick and Lester, 1994; Smith et al., 1997). Receptor and chimeric G protein α subunit RNA transcripts were synthesized using the T7 polymerase (“Message Machine,” Ambion) from linearized plasmids or PCR products containing the complete coding region of the genes. Oocytes were injected with 5–25 ng synthetic receptor RNA and incubated for 3–8 days at 17 degrees. Three to eight hours prior to recording, oocytes were injected with 500 pg chimeric Gα subunit mRNA. Dual electrode voltage clamp (Axon Instruments Inc.) was performed using 3 M KCl-filled glass microelectrodes having resistances of 1–2 MOhm. Unless otherwise specified, oocytes were voltage clamped at a holding potential of −80 mV. During recordings, oocytes were bathed in continuously flowing (1–3 ml/min) medium containing 96 mM NaCl, 2 mM KCl, 1.8 mM CaCl2, 1 mM MgCl2, and 5 mM HEPES, pH 7.5 (ND96). Drugs were applied by local perfusion from a 10 μl glass capillary tube fixed at a distance of 0.5 mm from the oocyte. Experiments were carried out at room temperature. All values are expressed as mean±standard error of the mean.

T1 sequence (Q9GZQ6 whole entry): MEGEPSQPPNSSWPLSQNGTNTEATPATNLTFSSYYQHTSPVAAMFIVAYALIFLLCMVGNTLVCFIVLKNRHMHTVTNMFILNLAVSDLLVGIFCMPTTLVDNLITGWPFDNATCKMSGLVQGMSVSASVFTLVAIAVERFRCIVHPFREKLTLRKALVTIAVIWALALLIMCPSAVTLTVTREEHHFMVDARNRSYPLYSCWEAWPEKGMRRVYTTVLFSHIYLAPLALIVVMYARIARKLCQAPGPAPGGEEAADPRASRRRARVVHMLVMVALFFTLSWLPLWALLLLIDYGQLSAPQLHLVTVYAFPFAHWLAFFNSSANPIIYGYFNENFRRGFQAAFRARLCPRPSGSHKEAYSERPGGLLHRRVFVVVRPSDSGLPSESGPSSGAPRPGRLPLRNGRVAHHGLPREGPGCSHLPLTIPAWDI

## O=C(O)CN(CCOCCOCCN(CC(=O)O)CC(=O)O)CC(=O)O [EGTA, reference compound]
  currents stimulated by NPFF in oocytes expressing NPFF1 and cGαq/z5: blocked
